Experimental findings from patent publication US8569302B2, “Inhibitors of flaviviridae viruses” (Gilead Sciences, Inc., priority 2009, dated 2013) are described below.

Molecules are shown by their SMILES.

The test system of this assay is human hepatoma Huh-7 cell line harboring a HCV replicon. Description: HCV replicon assay (inhibition of viral replication, luciferase readout). The class given is cell-based. The conditions noted are these: Hepatitis C virus, 72 h, Huh-7 HCV replicon cells, 3 days incubation. How it is done:
The anti-HCV activity of the compounds of this invention was tested in a human hepatoma Huh-7 cell line harboring a HCV replicon. The assay comprised the following steps:
Step 1: Compound Preparation and Serial Dilution.
Serial dilution was performed in 100% DMSO in a 384-well plate. A solution containing a compound at 225-fold concentration of the starting final serial dilution concentration was prepared in 100% DMSO and 15 μL added to the pre-specified wells in column 3 or 13 of a polypropylene 384-well plate. The rest of the 384-well plate was filled with 10 μL 100% DMSO except for columns 23 and 24, where 10 μL of 500 μM a HCV protease inhibitor (ITMN-191) in 100% DMSO was added. The HCV protease inhibitor was used a control of 100% inhibition of HCV replication. The plate was then placed on a Biomek FX Workstation to start the serial dilution. The serial dilution was performed for ten cycles of 3-fold dilution from column 3 to 12 or from column 13 to 22.
Step 2: Cell Culture Plate Preparation and Compound Addition
To each well of a black polypropylene 384-well plate, 90 μL of cell media containing 1600 suspended Huh-7 HCV replicon cells was added with a Biotek uFlow Workstation. A volume of 0.4 μL of the compound solution was transferred from the serial dilution plate to the cell culture plate on a Biomek FX Workstation. The DMSO concentration in the final assay condition was 0.44%. The plates were incubated for 3 days at 37° C. with 5% CO2 and 85% humidity.
Step 3: Detection of Cytotoxicity and Inhibition of Viral Replication
a) Assessment of cytotoxicity: The media in the 384-well cell culture plate was aspirated with a Biotek EL405 plate-washer. A volume of 50 μL of a solution containing 400 nM Calcein AM in 100% PBS was added to each well of the plate with a Biotek uFlow Workstation. The plate was incubated for 30 minutes at room temperature before the fluorescence signal ([…]) was measured with a Perkin Elmer Envision Plate Reader.
b) Assessment of inhibition of viral replication: The calcein-PBS solution in the 384-well cell culture plate was aspirated with a Biotek EL405 plate-washer. A volume of 20 μL of Dual-Glo luciferase buffer (Promega, Dual-Glo Luciferase Assay Reagent, cat. #E298B) was added to each well of the plate with a Biotek uFlow Workstation. The plate was incubated for 10 minutes at room temperature. A volume of 20 μL of a solution containing 1:100 mixture of Dual-Glo Stop & Glo substrate (Promega, Dual-Glo Luciferase Assay Reagent, cat. #E313B) and Dual-Glo Stop & Glo buffer (Promega, Dual-Glo Luciferase Assay Reagent, cat. #E314B) was then added to each well of the plate with a Biotek uFlow Workstation. The plate was incubated at room temperature for 10 minutes before the luminescence signal was measured with a Perkin Elmer Envision Plate Reader.
The percent cytotoxicity was determined by calcein AM conversion to fluorescent product. The average fluorescent signal from the DMSO control wells was defined as 100% nontoxic. The individual fluorescent signal from testing compound treated well was divided by the average signal from DMSO control wells and then multiplied by 100% to get the percent viability. The percent anti-HCV replication activity was determined by the luminescence signal from the testing well compared to DMSO control wells. The background signal was determined by the average luminescence signal from the HCV protease inhibitor treated wells and was subtracted from the signal from the testing wells as well as the DMSO control wells. Following 3-fold serial dilutions, the EC50 and CC50 values were calculated by fitting % inhibition at each concentration to the following equation: % inhibition=100%/[EC50/[I])^b+1]
Where b is Hill's coefficient. See, for reference, Hill, A. V., The Possible Effects of the Aggregation of the Molecules of Hæmoglobin on its Dissociation Curves, J. Physiol. 40: iv-vii. (1910). […]
(In general: Replicon systems follow genome replication, usually without infectious particles.)
The inhibition is the change of the read-out against control, counted positive when it falls. For `C[C@@H](CCOc1ncccn1)N(c1cc(C#CC(C)(C)C)sc1C(=O)O)C(=O)[C@H]1CC[C@H](C)CC1` [Compound 59], the inhibition at 2 µM was determined as 99.9%.
With `C[C@@H](CCOc1ccccn1)N(c1cc(C#CC(C)(C)C)sc1C(=O)O)C(=O)[C@H]1CC[C@H](C)CC1` [Compound 60], the inhibition at 2 µM was 97.5%.
The result for `C[C@@H](CCOc1cc(CN(C)C)ccn1)N(c1cc(C#CC(C)(C)C)sc1C(=O)O)C(=O)[C@H]1CC[C@H](C)CC1` [Compound 61, 3-[[3-(4-dimethylaminomethyl-pyridin-2-yloxy)-1-(S)-methyl-propyl]-(trans-4-methyl-cyclohexanecarbonyl)-amino]-5-(3,3-dimethyl-but-1-ynyl)-thiophene-2-carboxylic acid] reads 99.9%.
In turn, `C[C@@H](CCOc1cc(CN2CCCC2)ccn1)N(c1cc(C#CC(C)(C)C)sc1C(=O)O)C(=O)[C@H]1CC[C@H](C)CC1` [Compound 62, 5-(3,3-dimethyl-but-1-ynyl)-3-[(trans-4-methyl-cyclohexanecarbonyl)-[1-(S)-methyl-3-(4-pyrrolidin-1-yl-methyl-pyridin-2-yloxy)-propyl]-amino]-thiophene-2-carboxylic acid] registered an inhibition at 2 µM of 100%.
Turning to `C[C@@H](CCOc1ccc(O)nn1)N(c1cc(C#CC(C)(C)C)sc1C(=O)O)C(=O)[C@H]1CC[C@H](C)CC1` [Compound 63, 5-(3,3-dimethyl-but-1-ynyl)-3-[[3-(6-hydroxy-pyridazin-3-yloxy)-1-(S)-methyl-propyl]-(trans-4-methyl-cyclohexanecarbonyl)-amino]-thiophene-2-carboxylic acid], testing at 2 µM gave an inhibition of 100%.
`Cn1cnnc1S[C@H]1CC[C@H](N(c2cc(C#CC(C)(C)C)sc2C(=O)O)C(=O)[C@H]2CC[C@H](C)CC2)CC1` [Compound 84, 5-(3,3-dimethylbut-1-ynyl)-3-(4-methyl-N-(4-(4-methyl-4H-1,2,4-triazol-3-ylthio)cyclohexyl)cyclohexanecarboxamido)thiophene-2-carboxylic acid] had an inhibition at 2 µM of 99.9%.
In turn, `Cn1cnnc1S[C@H]1CC[C@@H](N(c2cc(C#CC(C)(C)C)sc2C(=O)O)C(=O)[C@H]2CC[C@H](C)CC2)CC1` [Compound 85, 5-(3,3-dimethylbut-1-ynyl)-3-(4-methyl-N-(4-(4-methyl-4H-1,2,4-triazol-3-ylthio)cyclohexyl)cyclohexanecarboxamido)thiophene-2-carboxylic] yielded an inhibition at 2 µM of 99.6%.
The figure for `CC(C)(C)C#Cc1cc(N(C(=O)[C@H]2CC[C@H](C)CC2)[C@H]2CC[C@H](Sc3nncs3)CC2)c(C(=O)O)s1` [Compound 86, 3-(N-(4-(1,3,4-Thiadiazol-2-ylthio)cyclohexyl)-4-methylcyclohexanecarboxamido)-5-(3,3-dimethylbut-1-ynyl)thiophene-2-carboxylic acid] is 100%; for `CC(C)(C)C#Cc1cc(N(C(=O)[C@H]2CC[C@H](C)CC2)[C@H]2CC[C@H](Sc3ccncc3)CC2)c(C(=O)O)s1` [Compound 87, 5-(3,3-Dimethylbut-1-ynyl)-3-(4-methyl-N-(4-(pyridin-4-ylthio)cyclohexyl)cyclohexanecarboxamido)thiophene-2-carboxylic acid] it is 99.5%; for `CC(C)(C)C#Cc1cc(N(C(=O)[C@H]2CC[C@H](C)CC2)[C@H]2CC[C@H](Sc3cccc[n+]3[O-])CC2)c(C(=O)O)s1` [Compound 88] it is 98.5%.
As to `CCn1ccnc1S[C@H]1CC[C@H](N(c2cc(C#CC(C)(C)C)sc2C(=O)O)C(=O)[C@H]2CC[C@H](C)CC2)CC1` [Compound 89, 5-(3,3-Dimethylbut-1-ynyl)-3-(N-(4-(1-ethyl-1H-imidazol-2-ylthio)cyclohexyl)-4-methylcyclohexanecarboxamido)thiophene-2-carboxylic acid], testing at 2 µM gave an inhibition of 99.4%.
